The text below walks through data of paper PMC9313566 (Basic & Clinical Pharmacology & Toxicology, 2022).

In this test the target is haemoglobin (Hb) (Homo sapiens, UniProt P68871+P69905). Nature of the test: SPR. The test is classed as binding.

Usually pKd stands for −log10 of the Kd, conventionally taken in molar units. A low value points to a large Kd.

pKd: −log10 of the molar value.

Chain of haemoglobin (Hb) (P69905 2-142): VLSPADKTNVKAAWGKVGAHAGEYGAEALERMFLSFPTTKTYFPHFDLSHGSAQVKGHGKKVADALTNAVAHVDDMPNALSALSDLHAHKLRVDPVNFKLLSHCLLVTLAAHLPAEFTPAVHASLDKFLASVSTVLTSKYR
Chain of haemoglobin (Hb) (P68871 2-147): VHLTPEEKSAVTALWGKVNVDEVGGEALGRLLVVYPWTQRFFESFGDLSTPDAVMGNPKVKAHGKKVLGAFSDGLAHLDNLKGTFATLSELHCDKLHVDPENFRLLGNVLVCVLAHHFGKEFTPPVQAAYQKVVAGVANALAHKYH

In turn, `C/C1=C\CC[C@H](C)C(=O)C[C@@H](C(C)C)C(=O)C1` [curdione] showed a pKd of 5.42. In the case of `C/C1=C\Cc2c(C)coc2C/C(C)=C/CC1` [furanodiene], the negative logarithm of the Kd (pKd) was 4.74. Regarding `CC(C)=C1C/C=C(\C)CC/C=C(\C)CC1=O` [germacrone], the pKd was 4.12. This pKd lies 0.62 log units lower than the previous one. In turn, `C=C[C@]1(C)CC[C@@H](C(=C)C)C[C@H]1C(=C)C` [β-elemene] had a negative-log Kd (pKd) of 5.64.
